# Experimental data published in patent publication US20240226115A1, “AXL INHIBITOR COMPOUNDS” (ARCUS BIOSCIENCES, INC., priority 2021, published 2024).
# Target: T1, recombinant human MER (Homo sapiens, UniProt Q12866)
# T1 construct: purchased Invitrogen
# T1 sequence (Q12866 21-999): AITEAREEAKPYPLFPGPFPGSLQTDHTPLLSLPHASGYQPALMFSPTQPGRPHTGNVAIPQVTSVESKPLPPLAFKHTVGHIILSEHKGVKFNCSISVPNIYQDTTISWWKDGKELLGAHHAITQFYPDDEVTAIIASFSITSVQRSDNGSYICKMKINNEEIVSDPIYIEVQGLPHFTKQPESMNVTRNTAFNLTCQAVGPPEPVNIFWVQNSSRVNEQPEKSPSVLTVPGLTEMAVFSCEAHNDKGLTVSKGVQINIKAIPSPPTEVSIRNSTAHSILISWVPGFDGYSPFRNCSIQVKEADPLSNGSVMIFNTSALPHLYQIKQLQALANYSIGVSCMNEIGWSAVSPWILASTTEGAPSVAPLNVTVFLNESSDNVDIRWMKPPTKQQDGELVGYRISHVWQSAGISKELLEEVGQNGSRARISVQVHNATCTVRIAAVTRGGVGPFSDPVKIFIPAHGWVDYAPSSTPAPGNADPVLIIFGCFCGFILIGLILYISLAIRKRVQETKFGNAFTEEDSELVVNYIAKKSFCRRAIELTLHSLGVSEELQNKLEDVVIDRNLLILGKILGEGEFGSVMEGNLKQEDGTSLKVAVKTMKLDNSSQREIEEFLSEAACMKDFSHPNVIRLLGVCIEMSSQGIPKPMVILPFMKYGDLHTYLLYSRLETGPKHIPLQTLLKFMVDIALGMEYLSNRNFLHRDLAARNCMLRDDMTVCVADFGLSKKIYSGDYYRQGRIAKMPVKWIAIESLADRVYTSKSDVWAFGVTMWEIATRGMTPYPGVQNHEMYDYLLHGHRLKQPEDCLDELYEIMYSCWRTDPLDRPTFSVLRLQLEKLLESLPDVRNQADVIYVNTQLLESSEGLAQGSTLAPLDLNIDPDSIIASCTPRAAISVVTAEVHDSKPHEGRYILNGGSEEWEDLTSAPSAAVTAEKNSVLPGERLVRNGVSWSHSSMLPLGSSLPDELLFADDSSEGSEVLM
# Assay: HTRF KinEASE-TK biochemical potency, MER
# Conditions: 1 nM MER, 700 μM ATP
# Description: Purified recombinant human AXL, TYRO3 and MER proteins were purchased from Invitrogen™. 10 nM AXL, 2 nM TYRO3 or MER were incubated with varying concentrations of compounds in 50 mM HEPES, pH 7.4, 10 mM MgCl2, 0.01% BSA, 1 mM DTT and 2% DMSO in a total volume of 20 μl in a 384-well microplate (Corning™ #3640) at RT for 1 h. The AXL, TYRO3 and MER enzymatic reaction was initiated by transferring 10 μl of enzyme and compound mixture into 10 μl of 1.6 μM TK Substrate-biotin (HTRF® KinEASE-TK kit, Cisbio) and 1400 μM ATP pre-incubated in 50 mM HEPES, pH 7.4, 10 mM MgCl2, 0.01% BSA, 1 mM DTT in a 384-well microplate (Corning™ #3640) at RT, giving the final reaction conditions: 5 nM AXL, 1 nM TYRO3 or MER, 800 nM TK Substrate-biotin and 700 μM ATP in 50 mM HEPES, pH 7.4, 10 mM MgCl2, 0.01% BSA, 1 mM DTT and 1% DMSO with varying concentrations of compounds. Following 2 h incubation at RT, the AXL, TYRO3 and MER enzymatic reaction was stopped by transfer of 10 μl of reaction into 10 μl of detection mix (400 nM Streptavidin-XL665, 200-fold dilution TK Antibody-Cryptate and detection buffer, HTRF® KinEASE-TK kit, Cisbio) in a white 384-well microplate (Perkin Elmer, OptiPlate 384). After 1 h incubation at RT, the plate was put into a plate reader (Evision) to read at 665/620 nm (acceptor/donor) for HTRF. The value of the DMSO blank (MIN inhibition=100% activity) was used as a negative control. The positive control was established by adding 5 μl of enzyme and DMSO mixture into 10 μl of detection mix followed by addition of 5 μl of TK Substrate-biotin and ATP mixture (MAX inhibition=0% activity). To calculate the percent activity, Equation 1 was used. Ratio665/620 is the value at a given compound concentration: […]
row,SMILES,IC50
1,"CC1(O)CCOc2cc(-c3n[nH]c4ncc(-c5ccc6c(c5)CCN(C5CCCC5)CC6)cc34)ccc21 (stereo not drawn) [Example 26, 7-[5-(3-Cyclopentyl-2,3,4,5-tetrahydro-1H-3-benzazepin-7-yl)-1H-pyrazolo[3,4-b]pyridin-3-yl]-4-methyl-3,4-dihydro-2H-1-benzopyran-4-ol]",100 to 1000 nM
2,"CC1(O)CCCCc2cc(-c3n[nH]c4ncc(-c5ccc6c(c5)CCN(C5CCCC5)CC6)cc34)ccc21 (stereo not drawn) [Example 27, 2-[5-(3-Cyclopentyl-2,3,4,5-tetrahydro-1H-3-benzazepin-7-yl)-1H-pyrazolo[3,4-b]pyridin-3-yl]-5-methyl-6,7,8,9-tetrahydro-5H-benzo[7]annulen-5-ol]",> 1000 nM
3,"CC1(O)CCCOc2cc(-c3n[nH]c4ncc(-c5ccc6c(c5)CCN(C5CCCC5)CC6)cc34)ccc21 (stereo not drawn) [Example 28, (8-[5-(3-Cyclopentyl-2,3,4,5-tetrahydro-1H-3-benzazepin-7-yl)-1H-pyrazolo[3,4-b]pyridin-3-yl]-5-methyl-2,3,4,5-tetrahydro-1-benzoxepin-5-ol)]",100 to 1000 nM
4,"C[C@@H]1CCCN1C1CCc2ccc(-c3cnc4[nH]nc(-c5ccc6c(c5)OCCC6(C)O)c4c3)cc2CC1 (stereo partly drawn) [Example 29, 4-Methyl-7-(5-{7-[(2R)-2-Methylpyrrolidin-1-yl]-6,7,8,9-tetrahydro-5H-benzo[7]annulen-2-yl}-1H-pyrazolo[3,4-b]pyridin-3-yl)-3,4-dihydro-2H-1-benzopyran-4-ol]",100 to 1000 nM
5,"CC1(O)CCc2cc(-c3n[nH]c4ncc(-c5ccc6c(c5)CC[C@@H](N5CCCC5)CC6)cc34)ccc21 (stereo partly drawn) [Example 30, 1-Methyl-5-{5-[(7S)-7-(pyrrolidin-1-yl)-6,7,8,9-tetrahydro-5H-benzo[7]annulen-2-yl]-1H-pyrazolo[3,4-b]pyridin-3-yl}-2,3-dihydro-1H-inden-1-ol]",100 to 1000 nM
6,"CC1(O)CCOc2cc(-c3n[nH]c4ncc(-c5ccc6c(c5)CC[C@@H](N5CCCC5)CC6)cc34)ccc21 (stereo partly drawn) [Example 31, 4-Methyl-7-{5-[(7S)-7-(pyrrolidin-1-yl)-6,7,8,9-tetrahydro-5H-benzo[7]annulen-2-yl]-1H-pyrazolo[3,4-b]pyridin-3-yl}-3,4-dihydro-2H-1-benzopyran-4-ol]",100 to 1000 nM
7,"C[C@@H]1CCCN1C1CCc2ccc(-c3cnc4[nH]nc(-c5ccc6c(c5)OCC5(CC5)NC6=O)c4c3)cc2CC1 (stereo partly drawn) [Example 36, 8-(5-{7-[(2R)-2-Methylpyrrolidin-1-yl]-6,7,8,9-tetrahydro-5H-benzo[7]annulen-2-yl}-1H-pyrazolo[3,4-b]pyridin-3-yl)-4,5-dihydro-2H-spiro[1,4-benzoxazepine-3,1′-cyclopropan]-5-one]",< 100 nM
8,"C[C@@H]1CCCN1C1CCc2ccc(-c3cnc4[nH]nc(-c5ccc6c(c5)OCC5(CCC5)NC6=O)c4c3)cc2CC1 (stereo partly drawn) [Example 37, 8-(5-{7-[(2R)-2-Methylpyrrolidin-1-yl]-6,7,8,9-tetrahydro-5H-benzo[7]annulen-2-yl}-1H-pyrazolo[3,4-b]pyridin-3-yl)-4,5-dihydro-2H-spiro[1,4-benzoxazepine-3,1′-cyclobutan]-5-one]",< 100 nM
9,"C[C@@H]1CCCN1C1CCc2ccc(-c3cnc4[nH]nc(-c5ccc6c(c5)C(=O)NC6(C)C)c4c3)cc2CC1 (stereo partly drawn) [Example 38, 3,3-Dimethyl-6-(5-{7-[(2R)-2-methylpyrrolidin-1-yl]-6,7,8,9-tetrahydro-5H-benzo[7]annulen-2-yl}-1H-pyrazolo[3,4-b]pyridin-3-yl)-2,3-dihydro-1H-isoindol-1-one]",100 to 1000 nM
10,"C[C@H]1CCCN1C1Cc2ccc(-c3cnc4[nH]nc(-c5ccc6c(c5)OCC(C)(C)NC6=O)c4c3)cc2C1 (stereo partly drawn) [Example 39, 3,3-Dimethyl-8-(5-{2-[(2S)-2-methylpyrrolidin-1-yl]-2,3-dihydro-1H-inden-5-yl}-1H-pyrazolo[3,4-b]pyridin-3-yl)-2,3,4,5-tetrahydro-1,4-benzoxazepin-5-one]",100 to 1000 nM
11,"Cc1cc2c(cc1-c1n[nH]c3ncc(-c4ccc5c(c4)CCC(N4CCC[C@H]4C)CC5)cc13)OCCNC2=O (stereo partly drawn) [Example 40, 7-Methyl-8-(5-{7-[(2R)-2-methylpyrrolidin-1-yl]-6,7,8,9-tetrahydro-5H-benzo[7]annulen-2-yl}-1H-pyrazolo[3,4-b]pyridin-3-yl)-2,3,4,5-tetrahydro-1,4-benzoxazepin-5-one]",100 to 1000 nM

# More lines, now with the values ahead:
row,IC50,SMILES
1,< 100 nM,"C[C@@H]1CCCN1C1(C)CCc2ccc(-c3cnc4[nH]nc(-c5ccc6c(c5)OCCNC6=O)c4c3)cc2CC1 (stereo partly drawn) [Example 23, 8-(5-{7-Methyl-7-[(2R)-2-methylpyrrolidin-1-yl]-6,7,8,9-tetrahydro-5H-benzo[7]annulen-2-yl}-1H-pyrazolo[3,4-b]pyridin-3-yl)-2,3,4,5-tetrahydro-1,4-benzoxazepin-5-one]"
2,< 100 nM,"C[C@H]1CCCN1C1(C)CCc2ccc(-c3cnc4[nH]nc(-c5ccc6c(c5)OCCNC6=O)c4c3)cc2CC1 (stereo partly drawn) [Example 24, 8-(5-{7-Methyl-7-[(2S)-2-methylpyrrolidin-1-yl]-6,7,8,9-tetrahydro-5H-benzo[7]annulen-2-yl}-1H-pyrazolo[3,4-b]pyridin-3-yl)-2,3,4,5-tetrahydro-1,4-benzoxazepin-5-one]"
3,< 100 nM,"CC[C@@H]1CCCN1C1CCc2ccc(-c3cnc4[nH]nc(-c5ccc6c(c5)OCCNC6=O)c4c3)cc2CC1 (stereo partly drawn) [Example 25, 8-(5-{7-[(2R)-2-Ethylpyrrolidin-1-yl]-6,7,8,9-tetrahydro-5H-benzo[7]annulen-2-yl}-1H-pyrazolo[3,4-b]pyridin-3-yl)-2,3,4,5-tetrahydro-1,4-benzoxazepin-5-one]"
4,< 100 nM,"CC1(C)NS(=O)(=O)c2cc(-c3n[nH]c4ncc(-c5ccc6c(c5)CCC(N5CCCC5)CC6)cc34)ccc21 (stereo not drawn) [Example 32, 3,3-Dimethyl-6-{5-[7-(pyrrolidin-1-yl)-6,7,8,9-tetrahydro-5H-benzo[7]annulen-2-yl]-1H-pyrazolo[3,4-b]pyridin-3-yl}-2,3-dihydro-1λ^6,2-benzothiazole-1,1-dione]"
5,< 100 nM,"C[C@@H]1CCCN1C1CCc2ccc(-c3cnc4[nH]nc(-c5ccc6c(c5)S(=O)(=O)NC6(C)C)c4c3)cc2CC1 (stereo partly drawn) [Example 33, 3,3-Dimethyl-6-(5-{7-[(2R)-2-methylpyrrolidin-1-yl]-6,7,8,9-tetrahydro-5H-benzo[7]annulen-2-yl}-1H-pyrazolo[3,4-b]pyridin-3-yl)-2,3-dihydro-1λ^6,2-benzothiazole-1,1-dione]"
6,< 100 nM,"CC1(C)NS(=O)(=O)c2cc(-c3n[nH]c4ncc(-c5ccc6c(c5)CCC(N5CCC[C@@H]5CO)CC6)cc34)ccc21 (stereo partly drawn) [Example 34, 6-(5-{7-[(2R)-2-(Hydroxymethyl)pyrrolidin-1-yl]-6,7,8,9-tetrahydro-5H-benzo[7]annulen-2-yl}-1H-pyrazolo[3,4-b]pyridin-3-yl)-3,3-dimethyl-2,3-dihydro-1λ^6,2-benzothiazole-1,1-dione]"
7,< 100 nM,"CC1(C)COc2cc(-c3n[nH]c4ncc(-c5ccc6c(c5)CCC(N5CCCC5)CC6)cc34)ccc2C(=O)N1 (stereo not drawn) [Example 35, 3,3-Dimethyl-8-{5-[7-(pyrrolidin-1-yl)-6,7,8,9-tetrahydro-5H-benzo[7]annulen-2-yl]-1H-pyrazolo[3,4-b]pyridin-3-yl}-2,3,4,5-tetrahydro-1,4-benzoxazepin-5-one]"
